From patent publication US12612386B2, “Heteroaryl-triazole compounds as pesticides” (Bayer Aktiengesellschaft, priority 2020, dated 2026)

Key:
Type in all cases: in vivo
[1] = system: cattle tick larvae (Rhipicephalus microplus), strain Parkhurst, resistant against synthetic pyrethroids; test: Rhipicephalus (Boophilus) microplus in-vitro contact test, larval cattle tick; conditions: 5 μg/cm^2 (=500 g/ha), after 48 hours
Protocol: Rhipicephalus (Boophilus) Microplus—In-Vitro Contact Tests Larval Cattle Tick (Strain Parkhurst, Resistant Against Synthetic Pyrethroids)
(§1) 9 mg compound is solved in 1 mL acetone and diluted with acetone to the desired concentration. 250 μL of the test solution is filled in 25 mL glass test tubes and homogeneously distributed on the inner walls by rotation and tilting on a shaking device (2 h at 30 rpm). With a compound concentration of 900 ppm, an inner surface of 44.7 cm^2 and a homogeneous distribution, a dose of 5 μg/cm^2 is achieved.
After the solvent has evaporated, each test tube is filled with 20-50 cattle tick larvae (Rhipicephalus microplus), closed with a perforated lid and incubated in a horizontal position at 85% relative humidity and 27° C. in an incubator. After 48 hours efficacy is determined. The larvae are patted on the ground of the tubes and negative geotactic behavior is recorded.
An efficacy of 100% means all larvae are dead or moribund; 0% means no larvae are dead or moribund.

[2] = system: adult mosquitoes Aedes aegypti strain MONHEIM; test: Aedes aegypti test (AEDSAE surface treatment & contact assay); conditions: 24 hours after contact, read-out: efficacy (mortality); for mortality at 4 mg/m2: surface concentration 4 mg/m^2, 30 min exposure; for mortality at 20 mg/m2: surface concentration 20 mg/m^2, 30 min exposure
Protocol: Aedes aegypti Test (AEDSAE Surface Treatment & Contact Assay)
Solvent: Aceton+2000 ppm rapeseed oil methyl ester (RME)
This solution is pipetted onto a glazed tile and after evaporation of the acetone, adult mosquitoes of the species Aedes aegypti strain MONHEIM are placed onto the dried surface. The exposure time is 30 minutes. Mortality in percent (%) is determined 24 hours after contact of the insects to the treated surface. 100% mortality means that all tested insects are dead, whereas 0% means that no insect died.

[3] = system: larvae of the banded cucumber beetle (Diabrotica balteata); test: Diabrotica balteata spray test; conditions: 168 h, 100 g/ha (=32 μg/well), after 7 days, read-out: efficacy (seedling growth)
Procedure, shortened: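 Efficacy is seedling survival after 7 days, where 0% means no seedlings grew and 100% means growth equal to untreated, uninfested controls. Wheat seedlings, germinated on agar for 1 day, were sprayed with the aqueous emulsifier dilution (acetone/DMF solvent) and then exposed to 10–20 banded cucumber beetle larvae.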

[4] = system: fall armyworm larvae (Spodoptera frugiperda); test: whole plant or invertebrate; conditions: 168 h
Procedure, shortened: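 Percent kill of Spodoptera frugiperda caterpillars, read 7 days after infestation of dried, spray-treated Zea mays leaf pieces. Spray preparation: compound in acetone plus dimethylformamide, diluted with emulsifier-containing water.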

[5] = system: adult brown dog ticks (Rhipicephalus sanguineus); test: Rhipicephalus sanguineus in-vitro contact test, adult brown dog ticks; conditions: 48 h, read-out: efficacy (ticks dead or moribund)
Protocol: Rhipicephalus sanguineus—In-Vitro Contact Tests with Adult Brown Dog Ticks
as §1
(§2) After the solvent has evaporated, each test tube is filled with 5-10 adult brown dog ticks (Rhipicephalus sanguineus), closed with a perforated lid and incubated in a lying position at room temperature and relative humidity. After 48 hours efficacy is determined. The ticks are patted on the ground of the tubes and are incubated on a heating plate at 45-50° C. for at most 5 minutes. Immotile or uncoordinated moving ticks, which are not able to escape the heat by climbing upwards, are marked as dead or moribund.
An efficacy of 100% means all ticks are dead or moribund; 0% means no ticks are dead or moribund.

[6] = system: brown planthopper (Nilaparvata lugens); test: Nilaparvata lugens spray test; conditions: 96 h
Protocol: Nilaparvata lugens—Spray Test
• Solvent: 78.0 parts by weight of acetone • 1.5 parts by weight of dimethylformamide • Emulsifier: alkylarylpolyglycol ether
(§3) To produce a suitable preparation of active compound, 1 part by weight of active compound is mixed with the stated amount of solvents and is diluted with water, containing an emulsifier concentration of 1000 ppm, to the desired concentration. Further test concentrations are prepared by dilution with emulsifier containing water.
Rice plants (Oryza sativa) are sprayed with a preparation of the active ingredient of the desired concentration and the plants are infested with the brown planthopper (Nilaparvata lugens).
After 4 days mortality in % is determined. 100% means all planthoppers have been killed and 0% means none of the planthoppers have been killed.

[7] = system: larvae of the southern green stink bug (Nezara viridula); test: whole plant or invertebrate; conditions: 96 h
Procedure, shortened: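 Percent mortality of southern green stink bug larvae was recorded at day 4, with 100% meaning all dead. The larvae were placed on barley sprayed with the test solution. That solution was prepared from acetone/dimethylformamide concentrate diluted in emulsifier-containing water (1000 ppm).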

[8] = system: green peach aphid (Myzus persicae); test: Myzus persicae spray test (MYZUPE); conditions: 120 h, 100 g/ha, after 5 days
Protocol: Myzus persicae—Spray Test
• Solvent: 78.0 parts by weight acetone • 1.5 parts by weight dimethylformamide • Emulsifier: alkylarylpoly glycol ether
as §3
Chinese cabbage (Brassica pekinensis) leaf disks infected with all instars of the green peach aphid (Myzus persicae), are sprayed with a preparation of the active ingredient of the desired concentration.
After 5 days mortality in % is determined. 100% means all aphids have been killed and 0% means none of the aphids have been killed.
Myzus persicae—Spray Test (MYZUPE)
• Solvent: 78.0 parts by weight acetone • 1.5 parts by weight dimethylformamide • Emulsifier: alkylarylpolyglycol ether
After the specified period of time, mortality in % is determined. 100% means all aphids have been killed and 0% means none of the aphids have been killed.

[9] = system: adult cat fleas (Ctenocephalides felis); test: Ctenocephalides felis in-vitro contact test, adult cat flea; conditions: 5 μg/cm^2 (=500 g/ha), after 48 hours
Protocol: Ctenocephalides felis—In-Vitro Contact Tests Adult Cat Flea
as §1
as §2, with “cat fleas (Ctenocephalides felis),” for “brown dog ticks (Rhipicephalus sanguineus),”, “fleas” for “ticks”, “fleas,” for “ticks,”
An efficacy of 100% means all fleas are dead or moribund; 0% means no fleas are dead or moribund.

Row | Compound | efficacy (larvae dead or moribund) [1] [%] | mortality at 4 mg/m2 [2] [%] | mortality at 20 mg/m2 [2] [%] | pest or weed control at 32 µg/disc, 100 g/ha [3] [%] | mortality at 100 g/ha [4] [%] | pest or weed control at 5 µg/cm2, 500 g/ha [5] [%] | mortality at 500 g/ha [6] [%] | mortality at 100 g/ha [7] [%] | mortality at 500 g/ha [7] [%] | mortality at 100 g/ha [8] [%] | efficacy (fleas dead or moribund) [9] [%]
1 | C[C@H](NC(=O)c1cc(C(F)(F)F)cc(S(C)(=O)=O)c1)c1ncnn1-c1cc(C#N)ncn1 [I-2] | 100 | 80 to 100 | 80 to 100 | 80 | – | – | – | – | – | – | –
2 | C[C@H](NC(=O)c1cc(Br)cc(Br)c1)c1ncnn1-c1cc(C#N)ncn1 [I-4] | 100 | – | 80 to 100 | 100 | 100 | 100 | – | – | – | – | –
3 | Cc1nc([C@H](C)NC(=O)c2cc(Cl)cc(SC(F)(F)F)c2)n(-c2cc(C#N)ncn2)n1 [I-6] | 100 | – | – | 100 | 100 | 100 | – | – | – | – | –
4 | C[C@H](NC(=O)c1cc(Cl)cc(S(=O)(=O)C(F)(F)F)c1)c1ncnn1-c1cc(C#N)ncn1 [I-7] | – | – | 80 to 100 | 100 | 100 | – | 90 | 90 | 100 | 100 | –
5 | C[C@H](NC(=O)c1cc(OC(F)(F)F)cc(S(C)(=O)=O)c1)c1ncnn1-c1cc(C#N)ncn1 [I-19] | – | 80 to 100 | 80 to 100 | 100 | 100 | – | – | 90 | 100 | 100 | –
6 | Cc1nc([C@H](C)NC(=O)c2cc(OC(F)F)cc(OC(F)F)c2)n(-c2cc(C#N)ncn2)n1 [I-22] | 100 | – | – | 100 | 100 | – | – | – | 100 | – | –
7 | Cc1nc([C@H](C)NC(=O)c2cc(OC(F)(F)F)cc(C3CC3)c2)n(-c2cc(C#N)ncn2)n1 [I-25] | – | 80 to 100 | 80 to 100 | 100 | 100 | – | – | – | 100 | – | –
8 | Cc1nc([C@H](C)NC(=O)c2cc(Br)cc(OC(F)(F)F)c2)n(-c2cc(C#N)ncn2)n1 [I-28] | 100 | – | – | 100 | 100 | 100 | – | – | 90 | – | –
9 | C[C@H](NC(=O)c1cc(Cl)nc(C2(C#N)CC2)c1)c1ncnn1-c1cc(C#N)ncn1 [I-35, 2-chloro-6-(1-cyanocyclopropyl)-N-[(1S)-1-[2-(6-cyanopyrimidin-4-yl)-1,2,4-triazol-3-yl]ethyl]pyridine-4-carboxamide] | 100 | – | – | 100 | 100 | – | – | – | – | – | –
10 | C[C@H](NC(=O)c1cc(OC(F)(F)F)cc(OC(F)(F)F)c1)c1nc(C2CC2)nn1-c1cc(C#N)ncn1 [I-37] | 100 | – | – | 80 | – | – | – | – | – | – | –
11 | C[C@H](NC(=O)c1cc(C#N)cc(OC(F)(F)F)c1)c1ncnn1-c1cc(C#N)ncn1 [I-38] | 100 | – | – | 100 | 100 | – | 100 | – | 100 | – | 90
12 | CC(C)N(C)C(=O)c1cc(-n2ncnc2[C@H](C)NC(=O)c2cc(Br)cc(Br)c2)ncn1 [I-40] | – | – | 80 to 100 | 100 | 100 | – | – | – | – | 90 | –
13 | Cc1nc([C@H](C)NC(=O)c2cc(Cl)cc(C(F)(F)F)c2)n(-c2cc(C#N)ncn2)n1 [I-41] | – | 80 to 100 | – | 100 | 100 | – | – | – | 90 | 100 | –
14 | CNC(=O)c1cc(-n2ncnc2[C@H](C)NC(=O)c2cc(Br)cc(Br)c2)ncn1 [I-46] | 100 | – | – | 100 | 100 | – | – | – | 100 | 90 | 100
15 | C[C@H](NC(=O)c1cc(OC(F)F)cc(C2CC2)c1)c1ncnn1-c1cc(C(N)=O)ncn1 [I-66] | 100 | – | – | 100 | 100 | – | – | – | 100 | 90 | 90
16 | C[C@H](NC(=O)c1cc(Cl)cc(C#N)c1)c1ncnn1-c1cc(C(N)=O)ncn1 [I-125] | – | – | – | 100 | 100 | – | 100 | 100 | 100 | 70 | –
17 | C[C@H](NC(=O)c1cc(C(F)(F)F)cc(C(F)(F)F)c1)c1ncnn1-c1cc(C(=O)N(C)C)ncn1 [I-129] | – | – | – | 100 | 100 | – | 100 | – | 100 | 100 | –
18 | C[C@H](NC(=O)c1cc(C(F)(F)F)cc(C(F)(F)F)c1)c1ncnn1-c1cc(C(N)=O)ncn1 [I-135] | 100 | – | – | 80 | 100 | 100 | 100 | 100 | 100 | – | –
19 | Cc1nc([C@H](C)NC(=O)c2cc(C(F)(F)F)cc(C(F)(F)F)c2)n(-c2cc(C(N)=O)ncn2)n1 [I-136] | – | – | – | 100 | 100 | – | 100 | – | 100 | 90 | –
20 | C[C@H](NC(=O)c1cccc(S(=O)(=O)C(F)(F)F)c1)c1ncnn1-c1cc(C(N)=O)ncn1 [I-140] | – | – | – | 100 | 100 | – | 90 | – | 100 | 100 | –
21 | C[C@H](NC(=O)c1cc(OC(F)(F)F)cc(C(C)(C)F)c1)c1ncnn1-c1cc(C#N)ncn1 [I-142] | – | – | – | 100 | 100 | – | 100 | – | 100 | 100 | –
